The CATMoS acute toxicity set (Mansouri et al. 2021)

Assay: GHS categories as the set defines them, by LD50: 1 up to 5, 2 up to 50, 3 up to 300, 4 up to 2000, 5 above 2000 mg/kg
Conditions: rat; in vivo; po

| Compound | GHS category |
| --- | --- |
| Cc1cccc(OC(=O)c2ccccc2OC(N)=O)c1 | 5 |
| CO[Si](CC(C)CC(C)(C)C)(OC)OC (configuration not stated) | 5 |
| C[Si]1(C)O[Si](C)(c2ccccc2)O[Si](C)(C)O[Si](C)(c2ccccc2)O1 (configuration not stated) | 5 |
| C=C(C)C(=O)NC(C)C | 5 |
| CCC(C)CCC(C)(O)CC (configuration not stated) | 5 |
| CCOC(=O)C1=C(COCCN2C(=O)c3ccccc3C2=O)NC(C)=C(C(=O)OC)C1c1ccccc1Cl (configuration not stated) | 5 |
| O=C1C=C2C=C[C@@H]3C[C@@]2(O1)[C@H]1CCCCN31 | 4 |
| CC1Oc2cc(C(=O)C=Cc3ccc(Cl)cc3)ccc2N(C)C1=O (configuration not stated) | 5 |
| O=C(O)CCCCC(=O)O | 5 |
| COc1ccc2c(c1)CC[C@@H]1[C@@H]2CC[C@]2(C)C(=O)CC[C@@H]12 | 5 |
| CN1C(C(=O)Nc2ccccc2)=C(O)c2ccccc2S1(=O)=O | 5 |
| Cc1nc2n(c1/C=N/NC(=O)CN(C)C)CCS2 | 4 |
| Cc1cccc2ncc(C(=O)NC(C)C)c(=O)n12 | 3 |
| CCC(=O)OCCCc1ccccc1 | 5 |
| O=C1OC(CBr)CC12CC(CBr)OC2=O (configuration not stated) | 5 |
| C[C@]12C=CC(=O)C=C1CC[C@@H]1[C@@H]2CC[C@@]2(C)[C@H]1CC[C@]2(C)O | 4 |
| CCCCC(CC)CNc1ccc2ccccc2c1N=Nc1ccc(N=Nc2ccccc2C)cc1C (configuration not stated) | 5 |
| CC(C)NC(=O)N1CCc2nc(N=C(N)N)sc2C1 | 4 |
| CCC=CCC=CCC=CCC=CCCCCCCC(=O)OCC | 5 |
| CCCCCC=CCC=CCC=CCC=CCCCC(=O)OCC | 5 |
| Clc1ccccc1-c1nc(-c2ccncc2)no1 | 5 |
| CCCCCCCCNC(=O)c1cnc2cccc(C)n2c1=O | 3 |
| CNC(=O)C(=NNc1ccccc1)C(C)=O | 5 |
| COc1ccc(-c2ccccc2)cc1NNC(=O)OC(C)C | 5 |

| Compound | GHS category |
| --- | --- |
| COCC(=O)O[C@]1(CCN(C)CCCc2nc3ccccc3[nH]2)CCc2cc(F)ccc2[C@@H]1C(C)C | 4 |
| CCOC(=O)CP(=O)(OCC)OCC | 5 |
| CC(C)OC(=O)[C@@H](C)N(C(=O)c1ccccc1)c1ccc(F)c(Cl)c1 | 5 |
| Cc1cc(C2CC2)nc(Nc2ccccc2)n1 | 5 |
| CN1C(=O)C(C)(C)Oc2cc(C(=O)c3ccccc3)ccc21 | 5 |
| CC(=O)COc1nn(-c2cccc(C(F)(F)F)c2)c2ncccc12 | 4 |
| CCCCCCCCCCCCCO[PH](=O)OCCCCCCCCCCCCC | 5 |
| FC(F)(F)c1cccc(-n2nc(OCCN3CCCCCC3)c3cccnc32)c1 | 4 |
| CCC(=O)OC1CC(=O)OC(C)CC=CC=CC(OC(C)=O)C(C)CC(CC=O)C(OC2OC(C)C(OC3CC(C)(OC(C)=O)C(OC(=O)CC)C(C)O3)C(N(C)C)C2O)C1OC (configuration not stated) | 5 |
| C=CC(=O)OCCOCC(CC)(COCCOC(=O)C=C)COCCOC(=O)C=C | 5 |
| CCNc1nc(Cl)nc(NCC(=O)O)n1 | 5 |
| CN1CC(c2ccon2)CC2c3cccc4[nH]cc(c34)CC21 (configuration not stated) | 4 |
| COc1cc(NC(=O)c2cc3ccccc3cc2O)c(OC)cc1Cl | 5 |
| Cc1cc(OC(=O)c2cc(Cl)ccc2OC(N)=O)ccc1Cl | 5 |
| COc1nc2cc(Cl)ccc2o1 | 4 |
| O=S(O)CO | 5 |
| CC(=O)Nc1ccc(OC(=O)c2cccs2)cc1 | 5 |
| CCN(CC)CCOC(=O)c1ccc(NC(=O)C(C)(C)Oc2ccccc2Cl)cc1 | 5 |
| CC1(C)S[C@@H]2[C@H](NC(=O)[C@H](N)c3ccc(O)cc3)C(=O)N2[C@H]1C(=O)O | 5 |
| CC1(C)COC(Cn2cncn2)(c2cc3cc(Cl)cc(Cl)c3o2)OC1 | 4 |
| O=C(O)NN1C(CCCOc2ccc(F)cc2)C[C@H](O)[C@@H]2CCCC[C@H]21 (some centres not stated) | 5 |
| CCCCCCCCCCCC(=O)OOC(=O)CCCCCCCCCCC | 5 |
| CCCCCCCCCCCCCCCCCC(=O)OCCO | 5 |
